The source of these data is patent US8110570B2, “Modulators of acetyl-coenzyme A carboxylase and methods of use thereof” (Cropsolution, Inc., priority 2008, dated 2012).

Test [1] deals with beta-hydroxybutyrate levels. In words: In vivo elevation of rat serum beta-hydroxybutyrate levels. Particulars: orally at 30 mg/Kg. From the text:
Determination of blood levels of ketone bodies after oral dosing of ACC inhibitors. Compounds of this invention, and salts thereof, can be evaluated for their potential as treatments for diseases caused by reduced neuronal metabolism by assessing their effects on plasma levels of beta-hydroxybutyrate. Inhibition of ACC leads to increased rates of fatty acid oxidation and therefore production of beta-hydroxybutyrate. Rats (Sprague Rats (Sprague Dawley, Charles River Laboratories, Boston, Mass.) are acclimated for at least 4 days prior to dosing. For example, animals given food and water ad libitum are treated at volume of 1.0 mL/200 g of body weight with either an aqueous solution containing 0.5% methyl cellulose (vehicle) or an aqueous solution containing 0.5% methyl cellulose containing test compound. At various times after compound administration whole blood is collected from a jugular vein catheter into lithium heparin coated tubes, mixed gently, kept on ice and centrifuged (2500×g, 15 minutes at 4° C.) within 1 hour of collection. The isolated plasma is kept frozen at −20° C. until further processing. Plasma levels of beta-hydroxybutyrate are determined using a beta-hydroxybutyrate detection kit following the manufacturer's directions (StanBio Laboratory, Boerne, Tex.). Compounds of the present invention, and salts thereof, were assessed for their ability to increase serum beta-hydroxybutyrate levels as described above.

In test [2] the test system is A2780 human ovary cancer cells. In words: MTT Cell Proliferation Assay. To be noted: 72 hours, read-out: Percent of Control A2780. Format: cell-based. An outline of the steps:
(§1)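 Cells seeded and grown 24 h at 37 °C, 5% CO2, then exposed to compound for 72 h. Viability read by MTT reduction (4 h) after overnight lysis/solubilization. Results expressed as percent of control versus compound concentration.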

The test system of test [3] is MDA-MB-231 human breast cancer cells. In words: MTT Cell Proliferation Assay. Type of test: cell-based. To be noted: 72 hours, read-out: Percent of Control MDA-MB-231. An outline of the steps: as §1
Test [4] concerns PC-3 human prostate cancer cells. In words: MTT Cell Proliferation Assay. Type of test: cell-based. To be noted: 72 hours, read-out: Percent of Control PC-3. The procedure, abridged: as §1
In test [5] the test system is HCT-116 human colon cancer cells. In words: MTT Cell Proliferation Assay. Format: cell-based. To be noted: 72 hours, read-out: Percent of Control HCT-116. An outline of the steps:
as §1

A further test has as its system C2C12 cells. In words: Fatty acid oxidation assay, [1-14C]palmitate to CO2. Type of test: cell-based, mouse. To be noted: compared to untreated controls. From the text: The in vivo ACC inhibitory activity of compounds in this invention can be confirmed in cultured cells using standard procedures that are well known to those skilled in the art. For example, since ACC catalyzes the first committed step in fatty acid biosynthesis, the in vivo activity of compounds can be confirmed by measuring their ability to prevent the formation of radiolabeled fatty acids from radiolabeled acetate in cultured human hepatoma cells (HepG2). In addition, since the malonyl-CoA produced by ACC inhibits fatty acid oxidation, the in vivo ACC inhibitory activity of compounds can be further confirmed by measuring the stimulation of fatty acid oxidation in cultured mouse myoblast cells (C2C12).
Fatty acid oxidation assays are performed essentially as described (Beckers et al., Cancer Res, 2007, 67: 8180-8187). Briefly, C2C12 cells are plated at 600,000 cells/T25 flask. The next day, media is changed and the DMSO with or without test compound is added to a final concentration of 0.5% (v/v). After 1 h at 37° C. in atmosphere of 5% CO2, freshly made 2 uCi of FA-free bovine serum albumin-[1-^14C] palmitate complex is added to each flask. The flasks are then sealed with a stopper and incubated 6 h at 37° C. after which evolved CO2 is liberated by injection of perchloric acid to final concentration of 5% and captured by incubating the flasks overnight in the presence of filter paper soaked with 5% KOH. The filters are then air-dried and incubated with scintillation cocktail overnight for equilibrium. Radioactivity is quantified by scintillation counting.

A further test concerns the target T1, hACC1-CT (Homo sapiens, UniProt Q13085).
T1 construct: PCR primers were designed for full-length hACC1 and hACC2 using GenBank submissions AY237919 and AJ575592, respectively; His tag (C); made in house; host or cells: baculovirus, Sf9 insect cells
In words: acetyl-CoA/malonyl-CoA isotope exchange assay, CT half-reaction. Format: biochemical. On the procedure: Overall ACC activity is comprised of two half-reactions, the BC reaction (the ATP-dependent carboxylation of biotin) and the CT reaction (the transfer of the carboxyl group from biotin to acetyl-CoA to form malonyl-CoA). Thus, it is of interest to localize the site of action of ACC inhibitors. To this end, representative compounds are tested in an acetyl-CoA/malonyl-CoA isotope exchange reaction which specifically measures the CT-half reaction. This assay is performed with slight modifications of published procedures (Gregolin et al., J Biol Chem, 1968, 243:4227-4235; Rendina et al., J Agric Food Chem, 1990, 38:1282-1287). Briefly, the reaction mixture (50 μL) contained 50 mM Hepes (pH 7.4), 20 mM K-citrate, 1.5 mM MgSO4, 4 mM malonyl-CoA, 1.67 mM acetyl-CoA, 0.34 mM [^14C]acetyl-CoA (about 60 mCi/mmol), 0.75 mg/mL BSA, and 1% (v/v) DMSO with or without inhibitor. Reactions are initiated by the addition of hACCl (0.3 μg) or hACC2 (0.15 μg) enzyme and incubated at 37° C. for 10 min. Reactions are stopped by addition of a 0.2M sodium arsenate solution containing 1U of phosphotransacetylase (13.5 μL) and incubation at room temperature for 30 min. […] The samples are then resuspended in water (200 μL), added to scintillation cocktail (3 mL), and counted in a scintillation counter to quantify radiolabel incorporated into malonyl-CoA. […]

Turning to `COc1cc(C(=O)N2CCC3(CC2)NC(=O)c2cc(OC(C)C)ccc2O3)nc2c(OC)cccc12` [Compound 169], the “Average beta-Hydroxybutyrate Concentration” value in test [1] (15 min) stood at 0.149 mM; in test [1] (30 min) it was 0.201 mM; in test [1] (60 min), 0.135 mM; in test [1] (120 min), 0.126 mM; in test [1] (240 min), 0.118 mM. In addition, the activity at 3.3 µM in test [2] came to 80.5%; in test [3] it was 81.4%; in test [4] it was 54.7%; in test [5], 57.2%. In addition, the activity at 10 µM amounted to 56.5% in test [2], 47.8% in test [3], 52.1% in test [4] and 45% in test [5].
Regarding `COc1ccc2c(c1)C(=O)NC1(CCN(C(=O)c3cc(OC)c4cccc(OC)c4n3)CC1)O2` [Compound 150], the “Average beta-Hydroxybutyrate Concentration” value in test [1] (15 min) was 0.160 mM; in test [1] (30 min), 0.214 mM; in test [1] (60 min), 0.147 mM; in test [1] (120 min) it was 0.140 mM; in test [1] (240 min), 0.102 mM. Besides, the activity at 3.3 µM in test [2] was found to be 86.5%; in test [3] it was 76.1%; in test [4] it was 60.7%; in test [5] it was 70.2%. Also, the activity at 10 µM in test [2] amounted to 57.6%; in test [3], 50.2%; in test [4], 47.7%; in test [5] it was 59.4%.
The IC50 is the concentration that inhibits the measured activity by half. Read a high IC50 as weaker potency in that assay. For `COc1cc(C(=O)N2CCC3(CC2)NC(=O)c2cc(Br)ccc2O3)nc2c(OC)cccc12` [Compound 2, 6-Bromo-1′-[(4,8-dimethoxyquinoline-2-yl)carbonyl]spiro[2H-1,3-benzoxazine-2,4′-piperidine]-4(3H)-one], the “stimulation of fatty acid oxidation” value in the test with C2C12 cells (C2C12, 0.1 μM) is listed as 170%; in the test with C2C12 cells (C2C12, 1 μM), 320%. The molecule also had an IC50 on hACC1-CT of 0.1 µM.
